Assay results reported in publication PMC8693659 (RSC Advances, 2021).

Target: SYK (Homo sapiens, UniProt P43405)
Assay: In vitro kinase inhibition assay
Assay type: biochemical
Settings: for remained SYK activities: inhibitor at 5 μM

Row | Structure (SMILES) | IC50 | remained SYK activities
1 | Cc1coc2c1C(=O)C(=O)c1c-2ccc2c(C)cccc12 [TanI, tanshinone I] | 1720 nM | 37.0 ± 2.3%
2 | Cc1coc2c1C(=O)C(=O)c1c-2ccc2c1CCCC2(C)C [TanIIA, tanshinoneIIA] | 3200 nM | 44.7 ± 3.3%
